Results on two molecules are retold here after the NIST ThermoML archive (doi:10.1016/j.jct.2018.11.003).

This data set in a line: cn = amount concentration of the nth substance listed, in mol/dm3. The note with it: 298.15 K, 101.3 kPa, Liquid, Taylor dispersion method.

In the case of `O=C(O)CC(O)(CC(=O)O)C(=O)O` [citric acid] + O, the binary diffusion coefficient runs as follows: (c1 = 0.002) 8.48e-10 m2/s; (c1 = 0.00499) 7.9e-10 m2/s; (c1 = 0.00997) 7.6e-10 m2/s; (c1 = 0.05) 7.19e-10 m2/s.
Consider `O=C([O-])CC(O)(CC(=O)[O-])C(=O)[O-].O=C([O-])CC(O)(CC(=O)[O-])C(=O)[O-].[Ca+2].[Ca+2].[Ca+2]` [calcium citrate] + O, for which the binary diffusion coefficient is, setting by setting: (c1 = 0.0002) 6.18e-10 m2/s; (c1 = 0.000402) 6.18e-10 m2/s; (c1 = 0.000603) 6.16e-10 m2/s; (c1 = 0.000801) 6.11e-10 m2/s.
